Where two headings read alike, the source gives them in different places.
Experiments:
[1] = system: Clostridium difficile (C. diff) toxins A and B; assay: Detection of C. difficile toxins A and B in human faecal samples by ELISA (EXTEND samples); format: in vivo
Experimental: The detection of Clostridium difficile (C. diff) toxins A and B in human faecal samples was performed by ELISA. The samples to be analysed originated from clinical study 2819-MA-1002 (EXTEND).
The samples were sent to LGC (Analytical lab in Fordham, Cambridgeshire, UK) packed in dry ice and upon receipt stored in a freezer (nominally −80° C.). For each patient a stool sample was collected at Day 0 (screening) and also in case of disease recurrence or an unscheduled visit. For subjects participating in the Microbiome sub-study stool samples were collected at: Day 0 (screening), Day 5, Day 12, Day 27, Day 40, Day 55 and in the case of disease recurrence or an unscheduled visit. A total of 596 faecal samples were collected during the study.
C. difficile toxins A and B in human faecal samples were detected using TECHLAB C. difficile Tox A/B II ELISA kits (Product Number T5015).
The assay readout is the spectrophotometric dual wavelength optical density (OD) read at 450 nm and referenced at 620 nm and expressed in Absorbance Units (AU). All samples were measured in duplicate. The presence (+) or absence (−) of toxin was reported together with the mean OD.
The acceptability of each batch of test samples was dependent on the data from the QC samples fulfilling the acceptance criteria outlined below in Table 5, in that all positive QCs remain above the cut off value of >0.080 OD and negative QCs remain ≤0.080 OD. All batches contained 2 separate sets of QC samples which were measured in duplicate. The precision was calculated between the OD of replicates of each set using the coefficient of variation (CV) which should be <20%.

[2] = system: Clostridium difficile toxin A and B; assay: Single patient cases of Examples 6 and 7, indicator-guided switch to intermittent fidaxomicin; format: in vivo, human
Experimental: (§1) A patient being tested positively for Clostridium difficile toxin A and B (using a suitable assay known in the art) and having >5 UBM per day is treated with 200 mg Fidaxomicin twice a day in an initial course of treatment. The number of UBM is monitored daily to establish if the number of UBM will change positively to ≤3 UBM per day. At day 2 of the initial course of treatment the UBM is reduced to 2 UBM per day and at day 3 to 1 UBM per day. Since the UBM is below 4 UBM per day and even below 3 UBM per day for 2 consecutive days, the dosage regimen is switched to the intermittent course of treatment by administering to the patient 200 mg Fidaxomicin every other day starting from day 5 until Clostridium difficile toxin A and B are tested negative. The presence of Clostridium difficile toxin A and B is tested negative at day 12 after start of treatment (using a suitable assay known in the art).
as §1, with “day 9 and 10” for “day 2”, “to” for “to 2 UBM per day and at day”, “3” for “3 to 1”, “4” for “4 UBM per day and even below 3”, “day 12” for “day 5”, “day 27” for “day 12”

[3] = system: Clostridium difficile infection; conditions: Louie 2011; 200 mg Fidaxomicin twice daily or vancomycin 125 mg four times daily orally for 10 days; cited from earlier work
[4] = system: Clostridium difficile infection; conditions: Cornely 2012; 200 mg Fidaxomicin twice daily or vancomycin 125 mg four times daily orally for 10 days; cited from earlier work
CDI = conditions: Phase III studies, mITT analysis; cited from earlier work
[5] = system: Clostridium difficile infections (CDI); conditions: cited from earlier work
[6] = oral administration; cited from earlier work
[7] = Sub-study visit day 5, n = 20 per arm
[8] = Sub-study visit day 12, n = 20 per arm
[9] = Sub-study visit day 27, n = 20 Fidaxomicin, 17 Vancomycin
[10] = FID-CH: 10-day fidaxomicin chaser after repeat CDI treatment, 8 courses, excluding RCDI due to antimicrobial exposure
[11] = FID-TX: 200 mg BID for 10 days, of 3 courses

## CCc1c(Cl)c(O)c(Cl)c(O)c1C(=O)O[C@H]1[C@H](O)[C@H](OC)[C@H](OC/C2=C\C=C\C[C@H](O)/C(C)=C/[C@H](CC)[C@@H](O[C@@H]3OC(C)(C)[C@@H](OC(=O)C(C)C)[C@H](O)[C@@H]3O)/C(C)=C/C(C)=C/C[C@@H]([C@@H](C)O)OC2=O)O[C@@H]1C [fidaxomicin, 3-[[[6-deoxy-4-O-(3,5-dichloro-2-ethyl-4,6-dihydroxybenzoyl)-2-O-methyl-β-D-mannopyranosyl]oxy]methyl]-12(R)-[[6-deoxy-5-C-methyl-4-O-(2-methyl-1-oxopropyl)-β-D-lyxo-hexopyranosyl]oxy]-11 (S)-ethyl-8(S)-hydroxy-18(S)-(1(R)-hydroxyethyl)-9,13,15-trimethyloxacyclooctadeca-3,5,9,13,15-pentaene-2-one]
[1]; [7]
  CDI toxin in faecal stool samples, Negative (%): (75%)
  CDI toxin in faecal stool samples, Negative (number of subjects): 15
  CDI toxin in faecal stool samples, Positive (%): (25%)
  CDI toxin in faecal stool samples, Positive (number of subjects): 5
[1]; [8]
  CDI toxin in faecal stool samples, Negative (%): (95.0%)
  CDI toxin in faecal stool samples, Negative (number of subjects): 19
  CDI toxin in faecal stool samples, Positive (%): (5.0%)
  CDI toxin in faecal stool samples, Positive (number of subjects): 1
[1]; [9]
  CDI toxin in faecal stool samples, Negative (%): (95.0%)
  CDI toxin in faecal stool samples, Negative (number of subjects): 19
  CDI toxin in faecal stool samples, Positive (%): (5.0%)
  CDI toxin in faecal stool samples, Positive (number of subjects): 1
[2]; Example 6 patient, day 2 of initial course 200 mg twice a day, >5 UBM per day before
  UBM per day: 2 UBM per day
[2]; Example 6 patient, day 3 of initial course 200 mg twice a day
  UBM per day: 1 UBM per day
[2]; Example 6 patient, day 12 after start of treatment, 200 mg every other day from day 5
  Presence of Clostridium difficile toxin A and B: negative
[2]; Example 7 patient, day 9 and 10 of initial course 200 mg twice a day, >5 UBM per day before
  UBM per day: 3 UBM per day
[2]; Example 7 patient, day 27 after start of treatment, 200 mg every other day from day 12
  Presence of Clostridium difficile toxin A and B: negative
[3]
  Recurrence 30 days after end of treatment (%): 15.4%
  Recurrence 30 days after end of treatment (patients/N): 39/253
  Sustained clinical cure 30 days after end of treatment (%): 74.6%
  Sustained clinical cure 30 days after end of treatment (patients/N): 214/287
[4]
  Recurrence 30 days after end of treatment (%): 12.7%
  Recurrence 30 days after end of treatment (patients/N): 28/221
  Sustained clinical cure 30 days after end of treatment (%): 76.6%
  Sustained clinical cure 30 days after end of treatment (patients/N): 193/252
CDI
  Recurrence of CDI: 14.1%
[5]; 18 courses of fidaxomicin in 14 patients with RCDI
  Courses resulting in treatment success: 18
[5]; [10]
  RCDI: 2
  RCDI (%): 25%
[5]; FID-TP: taper 200 mg daily 7 days then 200 mg QOD 7-26 days, 7 courses
  RCDI: no RCDI
[5]; [11]
  RCDI episodes: 2
  RCDI episodes (%): 66%
[5]; following FID-CH
  Average symptom-free interval (SFI): 240 days
[5]; following FID-TP
  Average symptom-free interval (SFI): 150 days
[5]; following FID-TX
  Average symptom-free interval (SFI): 73 days
[6]
  Absorption from the intestinal tract: poorly absorbed

— patent publication US10548912B2, “Dosage regimen for a tiacumicin compound” (Astellas Pharma Europe Ltd., priority 2015, dated 2020)
